This note sets out measurements from PubChem BioAssay AID1259407 (Chemical Carcinogenesis Research Information System (CCRIS), 2018).

The test system of this data set is CCRIS mutagenicity, Ames/micronucleus/aberration tests. Nature of the data set: CCRIS mutagenicity studies.
[1] abbreviates: Test System: AMES SALMONELLA TYPHIMURIUM, Strain/Indicator: TA98, Metabolic Activation: NONE, Method: STANDARD PLATE.
Setting [2] is: Test System: AMES SALMONELLA TYPHIMURIUM, Strain/Indicator: TA98, Metabolic Activation: RAT, LIVER, S-9, AROCLOR 1254, Method: STANDARD PLATE.
The mark [3] stands for this setting: Test System: AMES SALMONELLA TYPHIMURIUM, Strain/Indicator: TA100, Metabolic Activation: NONE, Method: STANDARD PLATE.
Setting [4] is: Test System: AMES SALMONELLA TYPHIMURIUM, Strain/Indicator: TA100, Metabolic Activation: RAT, LIVER, S-9, AROCLOR 1254, Method: STANDARD PLATE.
The mark [5] stands for this setting: Test System: AMES SALMONELLA TYPHIMURIUM, Strain/Indicator: TA100, Metabolic Activation: NONE, Method: PREINCUBATION

Calls of active or inactive are those of the source. No rule for the calls is given here.

Consider `C#C[C@]1(OC(C)=O)CC[C@H]2[C@@H]3CCC4=CC(=O)CC[C@@H]4[C@H]3CC[C@@]21C`, for which the mutagenic call is, setting by setting: (Test System: AMES SALMONELLA TYPHIMURIUM, Strain/Indicator: TA97A, Metabolic Activation: NONE, Method: HOST-MEDIATED) “inactive; negative”; (Test System: AMES SALMONELLA TYPHIMURIUM, Strain/Indicator: TA97A, Metabolic Activation: NONE, Method: STANDARD PLATE) “inactive; negative”; (Test System: AMES SALMONELLA TYPHIMURIUM, Strain/Indicator: TA97A, Metabolic Activation: RAT, LIVER, S-9, PHENOBARBITONE, Method: PREINCUBATION) “inactive; negative”; (Test System: AMES SALMONELLA TYPHIMURIUM, Strain/Indicator: TA98, Metabolic Activation: MOUSE, LIVER, S-9, Method: STANDARD PLATE) “inactive; negative”; (Test System: AMES SALMONELLA TYPHIMURIUM, Strain/Indicator: TA98, Metabolic Activation: NONE, Method: HOST-MEDIATED) “inactive; negative”; under setting [1], “inactive; negative”. Further, the mutagenic call is, setting by setting: under setting [2], “inactive; negative”; (Test System: AMES SALMONELLA TYPHIMURIUM, Strain/Indicator: TA98, Metabolic Activation: RAT, LIVER, S-9, PHENOBARBITONE, Method: PREINCUBATION) “inactive; negative”; (Test System: AMES SALMONELLA TYPHIMURIUM, Strain/Indicator: TA100, Metabolic Activation: MOUSE, LIVER, S-9, Method: STANDARD PLATE) “inactive; negative”; (Test System: AMES SALMONELLA TYPHIMURIUM, Strain/Indicator: TA100, Metabolic Activation: NONE, Method: HOST-MEDIATED) “inactive; negative”; under setting [3], “inactive; negative”; under setting [4], “inactive; negative”. The mutagenic call (Test System: AMES SALMONELLA TYPHIMURIUM, Strain/Indicator: TA100, Metabolic Activation: RAT, LIVER, S-9, PHENOBARBITONE, Method: PREINCUBATION) was “inactive; negative”; the mutagenic call (Test System: AMES SALMONELLA TYPHIMURIUM, Strain/Indicator: TA1535, Metabolic Activation: MOUSE, LIVER, S-9, Method: STANDARD PLATE) is “inactive; negative”; the mutagenic call (Test System: AMES SALMONELLA TYPHIMURIUM, Strain/Indicator: TA1535, Metabolic Activation: NONE, Method: HOST-MEDIATED) is “inactive; negative”; the mutagenic call (Test System: AMES SALMONELLA TYPHIMURIUM, Strain/Indicator: TA1535, Metabolic Activation: NONE, Method: STANDARD PLATE) was “inactive; negative”; the mutagenic call (Test System: AMES SALMONELLA TYPHIMURIUM, Strain/Indicator: TA1535, Metabolic Activation: RAT, LIVER, S-9, AROCLOR 1254, Method: STANDARD PLATE) was “inactive; negative”; the mutagenic call (Test System: AMES SALMONELLA TYPHIMURIUM, Strain/Indicator: TA1535, Metabolic Activation: RAT, LIVER, S-9, PHENOBARBITONE, Method: PREINCUBATION) was “inactive; negative”. Also, the mutagenic call is “inactive; negative” (Test System: AMES SALMONELLA TYPHIMURIUM, Strain/Indicator: TA1537, Metabolic Activation: MOUSE, LIVER, S-9, Method: STANDARD PLATE); “inactive; negative” (Test System: AMES SALMONELLA TYPHIMURIUM, Strain/Indicator: TA1537, Metabolic Activation: NONE, Method: STANDARD PLATE); “inactive; negative” (Test System: AMES SALMONELLA TYPHIMURIUM, Strain/Indicator: TA1537, Metabolic Activation: RAT, LIVER, S-9, AROCLOR 1254, Method: STANDARD PLATE); “inactive; negative” (Test System: AMES SALMONELLA TYPHIMURIUM, Strain/Indicator: TA1538, Metabolic Activation: MOUSE, LIVER, S-9, Method: STANDARD PLATE); “inactive; negative” (Test System: AMES SALMONELLA TYPHIMURIUM, Strain/Indicator: TA1538, Metabolic Activation: NONE, Method: STANDARD PLATE); “inactive; negative” (Test System: AMES SALMONELLA TYPHIMURIUM, Strain/Indicator: TA1538, Metabolic Activation: RAT, LIVER, S-9, AROCLOR 1254, Method: STANDARD PLATE).

For the compound `O=C1c2ccccc2C([N+](=O)[O-])c2ccccc21`, the mutagenic call was “inactive; negative” under setting [1], “inactive; negative” under setting [2], “inactive; negative” under setting [3] and “inactive; negative” under setting [4].

In the case of `CC(=O)Nc1nnc(-c2ccc([N+](=O)[O-])o2)s1`, the mutagenic call (Test System: AMES SALMONELLA TYPHIMURIUM, Strain/Indicator: TA100, Metabolic Activation: RAT, LIVER, S-9, KC500 OR PHENOBARBITAL, Method: LIQUID SUSPENSION) is “active; positive”.

For the compound `O=C(/C=C/c1ccccc1O)c1ccc(O)cc1O`, the mutagenic call is, setting by setting: (Test System: Ames Salmonella typhimurium, Strain/Indicator: TA102, Metabolic Activation: None, Method: Preincubation) “inactive; negative”; (Test System: Ames Salmonella typhimurium, Strain/Indicator: TA102, Metabolic Activation: Rat, Liver, S-9, Aroclor 1254 in 0.154 M KCl, Method: Preincubation) “inactive; negative”.

Regarding `BrC(Br)C(Br)Br`, the mutagenic call was “active; positive” (Test System: AMES SALMONELLA TYPHIMURIUM, Strain/Indicator: TA97, Metabolic Activation: NONE, Method: STANDARD PLATE); “active; positive” (Test System: AMES SALMONELLA TYPHIMURIUM, Strain/Indicator: TA97, Metabolic Activation: RAT, LIVER, S-9, AROCLOR 1254, Method: STANDARD PLATE); “inactive; negative” under setting [1]; “active; positive” under setting [2]; “inactive; negative” under setting [3]; “active; positive” under setting [4]. Also, the mutagenic call (Test System: AMES SALMONELLA TYPHIMURIUM, Strain/Indicator: TA104, Metabolic Activation: NONE, Method: STANDARD PLATE) is “inactive; negative”; the mutagenic call (Test System: AMES SALMONELLA TYPHIMURIUM, Strain/Indicator: TA104, Metabolic Activation: RAT, LIVER, S-9, AROCLOR 1254, Method: STANDARD PLATE) is “active; positive”; the mutagenic call (Test System: AMES SALMONELLA TYPHIMURIUM, Strain/Indicator: TA1530, Metabolic Activation: NONE, Method: PREINCUBATION) was “active; positive”.

Regarding `CO[C@@H]1C[C@](C)(O)Cc2cc3c(c(O)c21)C(=O)c1c(O)cc2c(c1C3=O)O[C@@H]1O[C@@]2(C)[C@H](O)[C@@H](N(C)C)[C@@H]1O`, the mutagenic call by setting is: (Test System: AMES SALMONELLA TYPHIMURIUM, Strain/Indicator: TA98, Metabolic Activation: NONE, Method: PREINCUBATION) “inactive; negative”; (Test System: AMES SALMONELLA TYPHIMURIUM, Strain/Indicator: TA98, Metabolic Activation: RAT LIVER S-9, Method: PREINCUBATION) “active; positive”; under setting [5], “inactive; negative”; (Test System: AMES SALMONELLA TYPHIMURIUM, Strain/Indicator: TA100, Metabolic Activation: RAT LIVER S-9, Method: PREINCUBATION) “active; positive”; (Test System: AMES SALMONELLA TYPHIMURIUM, Strain/Indicator: TA1535, Metabolic Activation: NONE, Method: PREINCUBATION) “inactive; negative”; (Test System: AMES SALMONELLA TYPHIMURIUM, Strain/Indicator: TA1535, Metabolic Activation: RAT LIVER S-9, Method: PREINCUBATION) “inactive; negative”. The mutagenic call reads like this: (Test System: AMES SALMONELLA TYPHIMURIUM, Strain/Indicator: TA1537, Metabolic Activation: NONE, Method: PREINCUBATION) “inactive; negative”; (Test System: AMES SALMONELLA TYPHIMURIUM, Strain/Indicator: TA1537, Metabolic Activation: RAT LIVER S-9, Method: PREINCUBATION) “active; positive”; (Test System: E.COLI, Strain/Indicator: WP2 UVRA, Metabolic Activation: NONE, Method: PREINCUBATION) “inactive; negative”; (Test System: E.COLI, Strain/Indicator: WP2 UVRA, Metabolic Activation: RAT LIVER S-9, Method: PREINCUBATION) “inactive; negative”.

As to `O=[N+]([O-])C1CCCC1`, the mutagenic call under setting [5] was “inactive; negative”; the mutagenic call (Test System: AMES SALMONELLA TYPHIMURIUM, Strain/Indicator: TA100, Metabolic Activation: RAT, LIVER, S-9, AROCLOR, Method: PREINCUBATION) was “active; positive”; the mutagenic call (Test System: AMES SALMONELLA TYPHIMURIUM, Strain/Indicator: TA102, Metabolic Activation: NONE, Method: PREINCUBATION) is “inactive; negative”; the mutagenic call (Test System: AMES SALMONELLA TYPHIMURIUM, Strain/Indicator: TA102, Metabolic Activation: RAT, LIVER, S-9, AROCLOR, Method: PREINCUBATION) was “inactive; negative”; the mutagenic call (Test System: UDS RAT HEPATOCYTES, Strain/Indicator: THY INCORP, Metabolic Activation: NONE) is “active; positive”.

Take `O=c1[nH]cc(/C=C/Br)c(=O)[nH]1`: the mutagenic call by setting is: (Test System: CHINESE HAMSTER V-79, Strain/Indicator: V-79/8-AZAGUANINE, Metabolic Activation: NONE) “inactive; negative”; (Test System: UDS RODENT HEPATOCYTES, Strain/Indicator: THY INCORP, Metabolic Activation: NONE) “inactive; negative”.
